# Measured values taken from US10064843B2, “Bis-amide derivative and use thereof” (University-Industry Cooperation Group of Kyung Hee …, priority 2013, dated 2018).
# Read-outs that look alike come from different tables or passages of the source.
# Key:
# CypA [1] = molecular target: T1, CypA (Homo sapiens, UniProt P62937); experiment: PPIase activity of CypA, coupled chymotrypsin analysis; format: biochemical
# T1 construct: GST (N, cleaved yes); made in house; host or cells: E. coli (pGEX-KG)
# Description: Example 5: Analysis of Peptidyl-Prolyl Cis-Trans Isomerase Activity
# The PPIase activity of CypA was determined according to a known method using the coupled chymotrypsin analysis.
# The cis-trans isomerization was measured by absorbance at 390 nm in a spectrophotometer. Additionally, the remaining percentage of enzyme activity was measured at different concentrations of the inhibitor to calculate the 50% inhibition concentration (IC50) to the PPIase activity. Data was optimized via graphs by exporting using Graph Pad Prism 5.
# CypA [2] = molecular target: T1, CypA; experiment: 2D 1H TOCSY NMR of the WJCPA-126 and CypA complex; format: binding; details: FIG. 4
# Description: In the spin system of […],[…], and […] of CypA, the connectivity was shown in yellow-, green-, and red solid lines. […] From the above result, it was confirmed that the bis-amide compounds of the present invention can specifically bind to […],[…], and […] residues of CypA thereby inhibiting the PPIase activity of CypA.
# calcineurin = experiment: Calcineurin phosphorylase analysis in splenocytes; format: cell-based, mouse; details: FIG. 8b
# Description: Example 6: Analysis of Calcineurin Phosphorylase
# Dephosphorylation of RH phosphopeptide was measured using calcineurin cell activity assay kit (Enzo Life sciences, Plymouth Meeting, Pa., USA) to determine calcium-dependent activity of calcineurin. Splenocytes (2×10^6/well) were incubated along with or WJCPA-126 for 20 hours, and further untreated or stimulated with 1 μg/mL of ionomycin (Calibiochem, La Jolla, Calif., USA). Then, the cells were used for the measurement of calcineurin activity.
# NFAT1 = experiment: NFAT dephosphorylation by western blot and immunofluorescence; format: cell-based, mouse
# Description: Upon stimulation, the cells were washed with sterile PBS, suspended in lysis buffer (Invitrogen, Carlsbad, Calif., USA), incubated on ice for 10 minutes, and centrifuged at 19,000 g for 15 minutes. The phosphorylation state of the NFAT protein in the supernatant was confirmed by western blot analysis using monoclonal anti-NFATc 1. For the confirmation of NFAT1 localization using a confocal microscope, the cells were washed and then fixed by treating with 3.7% formaldehyde at room temperature for 20 minutes. […] Upon incubation, the cells were washed twice with PBS and incubated in a dark room at room temperature with secondary antibody, which was conjugated with Alexa 546 (Invitrogen, Carlsbad, Calif., USA) diluted in PBS containing 3% BSA at a 1:200 ratio, for 2 hours. […] Finally, the cells were washed once with PBS and mounted onto glass slides using a coverslip and a mounting solution (Vector Mount, Calif., USA). The images were captured via Zeiss confocal laser scanning microscope (Zeiss, Germany).
# IL-2 production = experiment: IL-2 concentration by ELISA in splenocytes; format: cell-based, mouse; details: up to 10 μM; FIG. 9c
# Description: Upon incubation, the cultures from three different wells were collected and IL-2 concentration was analyzed by ELISA according to the protocol by Enzo life Science (Plymouth Meeting, Pa., USA). IL-2 concentration was calculated based on the IL-2 standard solution.
# in vitro = format: cell-based, hepatitis C virus; details: genotype 1b Con1b; FIG. 11a
# Description: (§1) The effect of WJCPA-126 was determined in percentage of fluorescent cells in each image using sub-genotype 1b replicated cells. EC50 and CC50 were determined via nonlinear regression analysis using GraphPad Prism (GraphPad Software). The GFP expression level was quantitated and shown in the left panel. The images of GFP at the level of replicated cells were obtained while increasing the concentration of WJCPA-126 and are shown on the right panel.
# [3] = test system: genotype 1b (Con1b) replication cells; experiment: microbe, parasite or virus in culture; format: cell-based, hepatitis C virus; details: Hepatitis C virus
# Description: as §1
# CypA and NS5A or NS5B = molecular target: T2, CypA and NS5A or NS5B (Homo sapiens, UniProt P62937); experiment: Co-immunoprecipitation and mammalian two-hybrid analysis of CypA with NS5A or NS5B; format: cell-based; details: FIG. 13a, 13b
# T2 construct: 1 mg/mL of HCV Con1b replicon protein lysate; endogenous in cells; host or cells: Huh7 cells carrying the HCV Con1b subgenomic replicon
# T2 sequence (P62937 whole entry): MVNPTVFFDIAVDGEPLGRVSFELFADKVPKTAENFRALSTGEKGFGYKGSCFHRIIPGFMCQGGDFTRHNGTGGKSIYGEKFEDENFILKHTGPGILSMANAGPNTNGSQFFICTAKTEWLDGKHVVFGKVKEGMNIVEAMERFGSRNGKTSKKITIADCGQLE
# Description: Example 17: Co-Immunoprecipitation Assay
# For co-immunoprecipitation, 4 μg of specific antibody and 1 mg/mL of HCV Con1b replicon protein lysate to a final volume of 500 μL were rotated at 4° C. for 4 hours. Then, 20 μL of the washed protein A/G PLUS agarose (Santa Cruz, Calif., USA) was added thereto and incubated at 4° C. overnight. Subsequently, the sample was washed 3 times with Triton-wash-buffer, resuspended, and denatured in 5×SDS-PAGE buffer at 95° C. for 5 minutes. The resultant was centrifuges at 19,000 g for 1 minute at 4° C. and subjected to western blot analysis.
# Example 18: Mammalian Two-Hybrid System
# The interaction between intracellular CypA-NS5A and CypA-NS5B was confirmed by the two-hybrid screening technology using CheckMate™ mammalian two-hybrid system (Promega, Madison, Wis., USA) according to the manufacturer's instructions. In brief, pACT- and pBIND-based plasmids were co-transfected (TurboFect, FermentasC) to Huh7 cells along with a pG5luc reporter construct, and incubated at 37° C. After 72 hours, the cell lysate was analyzed regarding the luciferase activity.
# HCV replicon cell = experiment: Combined treatment: HCV replicon RNA level by qRT-PCR, synergy analysis; format: cell-based, hepatitis C virus; details: in combination with telaprevir, IFN-α, or ribavirin vs. each alone; FIG. 16
# Description: Example 19: Real-Time Quantitative Reverse Transcriptase PCR Analysis
# Real-time quantitative reverse transcriptase PCR (qRT-PCR) was performed using SYBR Green PCR Master Mix (Invitrogen/Applied Biosystem, Carlsbad, Calif., USA) and ABI Prism 7300 Real-time PCR System (Applied Biosystems, Carlsbad, Calif., USA) according to the manufacturer's instructions. Calculations were performed based on […] method using the following equation: R (ratio)=2-[ΔCT (sample)-ΔCT (control group)]. The data were expressed as fold change of the treated group relative to the control group and standardized relative to the glyceraldehyde 3-phosphate dehydrogenase (GAPDH) level.
# Example 20: Synergy Analysis
# In order to confirm whether the combination between NIM811 and IFN-α, ribavirin, or telaprevir is synergistic, additive, or antagonistic, the combination index (CI) was calculated using the CalcuSyn Software (Biosoft). In fact, the combination is additive when CI=1.0, synergistic when CI<1.0, and antagonistic when CI>1.0.
# T1 sequence (P62937 whole entry): as above
structure (smiles),measurement,setting,value
"COc1cc(C(C(=O)NC2CCCCC2)N(C(=O)Cc2c[nH]c3ccccc23)c2ccc(C(C)C)cc2)cc(OC)c1OC (stereo not drawn) [WJCPA-126, N-cyclohexyl-2-[(2-1H-indol-3-yl-acetyl)-(4-isopropyl-phenyl)-amino]-2-(3,4,5-trimethoxy-phenyl)-acetamide]",inhibitory effect against the PPIase activity of CypA,"CypA [1]; 1 μM, 20 nM CypA, FIG. 3a",strong inhibitory effect
same,IC50,"CypA [1]; FIG. 3b, read-out: IC50 PPIase activity",3.5 nM
same,IC50,"CypA [1]; FIG. 7a, read-out: IC50 PPIase activity of CypA",3.6 nM
same,binding residues of CypA by NMR,CypA [2],"binds to Arg 55, Trp 121, and Phe 113 residues of CypA"
same,effect on ionomycin-stimulated calcineurin phosphorylase activity,calcineurin,no inhibitory effect
same,NFAT1 migration into the nucleus,"NFAT1; ionomycin stimulation, FIG. 9b",significant localization of NFAT1 within the nucleus
same,phosphorylation state of NFAT1,"NFAT1; ionomycin-stimulated, FIG. 9a",maintained the dephosphorylated state of NFAT1
same,ionomycin-induced IL-2 production,IL-2 production,did not show any inhibitory activity
same,CC50,in vitro,12400 ± 2100 nM
same,EC50,[3],730 ± 100 nM
same,interactions between CypA and NS5A or NS5B,CypA and NS5A or NS5B,destroys the interactions between CypA and NS5A or NS5B
same,levels of HCV-specific RNA and IL-8 in combined treatment,HCV replicon cell,synergistic decrease
